Experiments:
Type in all cases: in vivo, guinea pigs
[1] = test system: bronchospasms elicited by acetylcholine; assay: Bronchodilator activity (Konzett assay) against bronchospasm elicited by intravenous acetylcholine; conditions: Cavia porcellus, guinea pig, three logarithmic cumulative doses, spasmogen acetylcholine i.v., read-out: Bronchodilator Activity (Konzett Assays) ED50, Spasmogenic Agent Acetylcholine
Procedure: (§1) The compounds of this invention are useful as bronchodilators for the treatment of asthma and chronic bronchitis. Bronchodilator activity is determined in guinea pigs against bronchospasms elicited by intravenous injections of 5-hydroxytryptamine, histamine or acetylcholine by the Konzett procedure. [See J. Lulling, P. Lievens, F. El Sayed and J. Prignot, Arzneimittel-Forschung, 18, 955 (1968).]
(§2) In Table 16 which follows bronchodilator activity for representative compounds of this invention against one or more of three spasmogenic agents is expressed as an ED50 determined from the results obtained with three logarithmic cummulative intravenous doses. In this assay, these compounds of this invention provide an effect of longer duration than does natural 1-PGE1 or 1-PGE2.

[2] = test system: bronchospasms elicited by 5-hydroxytryptamine; assay: Bronchodilator activity (Konzett assay) against bronchospasm elicited by intravenous 5-hydroxytryptamine; conditions: Cavia porcellus, guinea pig, three logarithmic cumulative doses, spasmogen 5-hydroxytryptamine i.v., read-out: Bronchodilator Activity (Konzett Assays) ED50, Spasmogenic Agent 5-hydroxytryptamine
Procedure: as §1, §2

[3] = test system: bronchospasms elicited by histamine; assay: Bronchodilator activity (Konzett assay) against bronchospasm elicited by intravenous histamine; conditions: Cavia porcellus, guinea pig, three logarithmic cumulative doses, spasmogen histamine i.v., read-out: Bronchodilator Activity (Konzett Assays) ED50, Spasmogenic Agent histamine
Procedure: as §1, §2

Row | SMILES | ED50 [1] [µg/kg] | ED50 [2] [µg/kg] | ED50 [3] [µg/kg]
1 | C=CC(O)(C/C=C/[C@H]1[C@H](O)CC(=O)[C@@H]1CCCCCCC(=O)O)CCCC (relative stereo) [9-Oxo-11α,16-dihydroxy-16-vinyl-13-trans-prostenoic Acid] | 760 | 1.86 | 1.11
2 | C=CC(O)(C/C=C/[C@H]1[C@H](O)CC(=O)[C@@H]1C/C=C\CCCC(=O)O)CCCC (relative stereo) [9-oxo-11α,16-dihydroxy-16-vinyl-5-cis,13-trans-prostadienoic acid] | 0.78 | 0.252 | 0.162
3 | C=CC(O)(C/C=C/[C@H]1[C@H](O)CC(=O)[C@@H]1C/C=C\CCCC(=O)O)CCCCC (relative stereo) [9-oxo-11α,16-dihydroxy-16-vinyl-20-methyl-5-cis,13-trans-prostadienoic acid] | 4.3 | 2.06 | 2.3
4 | C=CC(O)(C/C=C/[C@H]1[C@H](O)CC(=O)[C@@H]1C/C=C\CCCC(=O)OC)CCCC (relative stereo) [methyl-9-oxo-11α, 16-dihydroxy-16-vinyl-5-cis, 13-trans prostadienoate] | 0.302 | 0.354 | 0.212

Reference: US4518790A, “15-Deoxy-16-hydroxy-16-vinyl and cyclopropyl substituted prostanoic acids and congeners” (American Cyanamid Company, priority 1980, dated 1985)
